Assay results taken from the supplement of paper PMC13207355.
Where a name gives a salt, the structure may show the parent alone.

What was measured:
Conditions in all cases: exposure time: 72 h
E21 [1] = patient-derived glioblastoma stem cells of mesenchymal subtype; test: phenotypic distance (Euclidean, principal components) from DMSO controls (arbitrary units); higher = stronger morphological change
E28 [2] = patient-derived glioblastoma stem cells of classical subtype; test: as above
FT3469 [3] = normal neural stem cell line; test: as above
E31 [4] = patient-derived glioblastoma stem cells of proneural subtype; test: as above
E57 [5] = patient-derived glioblastoma stem cells of mesenchymal subtype; test: as above
E13 [6] = patient-derived glioblastoma stem cells of classical subtype; test: as above
E34 [7] = patient-derived glioblastoma stem cells of proneural subtype; test: as above
E21 [8] = test: surviving fraction (nuclei count normalised to DMSO); higher = more cells surviving (less toxic)
E28 [9] = test: as above
FT3469 [10] = test: as above
E31 [11] = test: as above
E57 [12] = test: as above
E13 [13] = test: as above
E34 [14] = test: as above
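Wherever phenotypic distance (Euclidean, principal components) from DMSO controls is given: cell Painting imaging in 384-well plates, CellProfiler features reduced to at least 20 principal components, Euclidean distance versus same-plate DMSO vehicle wells (0.1% v/v), median over six images per well.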
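Wherever surviving fraction (nuclei count normalised to DMSO) is given: nuclei counted by high-content imaging of Hoechst-stained cells in laminin-coated 384-well plates, relative to 0.1% DMSO vehicle wells, with staurosporine as cell-death control.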

CN1[C@@H]2CC[C@H]1CC(OC(=O)c1c[nH]c3ccccc13)C2 (stereo partly specified) [3-Tropanyl-indole-3-carboxylate hydrochloride]
Conditions | phenotypic distance | surviving fraction
E13 [6], 4.1 nM | 0.681 | –
E13 [6], 12.3 nM | 1.03 | –
E13 [6], 37 nM | 0.87 | –
E13 [6], 111.1 nM | 0.726 | –
E13 [6], 333.3 nM | 0.624 | –
E13 [6], 1000 nM | 1.01 | –
E13 [6], 3000 nM | 1.66 | –
E13 [13], 4.1 nM | – | 1.02
E13 [13], 12.3 nM | – | 0.939
E13 [13], 37 nM | – | 0.913
E13 [13], 111.1 nM | – | 0.975
E13 [13], 333.3 nM | – | 0.828
E13 [13], 1000 nM | – | 0.931
E13 [13], 3000 nM | – | 0.699
E21 [1], 4.1 nM | 0.866 | –
E21 [1], 12.3 nM | 0.871 | –
E21 [1], 37 nM | 0.74 | –
E21 [1], 111.1 nM | 0.815 | –
E21 [1], 333.3 nM | 0.781 | –
E21 [1], 1000 nM | 0.853 | –
E21 [1], 3000 nM | 1.33 | –
E21 [8], 4.1 nM | – | 0.945
E21 [8], 12.3 nM | – | 0.965
E21 [8], 37 nM | – | 0.912
E21 [8], 111.1 nM | – | 1
E21 [8], 333.3 nM | – | 0.935
E21 [8], 1000 nM | – | 0.929
E21 [8], 3000 nM | – | 0.821
E28 [2], 4.1 nM | 1.03 | –
E28 [2], 12.3 nM | 0.793 | –
E28 [2], 37 nM | 0.737 | –
E28 [2], 111.1 nM | 0.922 | –
E28 [2], 333.3 nM | 0.691 | –
E28 [2], 1000 nM | 0.845 | –
E28 [2], 3000 nM | 1.24 | –
E28 [9], 4.1 nM | – | 1.25
E28 [9], 12.3 nM | – | 0.858
E28 [9], 37 nM | – | 1.06
E28 [9], 111.1 nM | – | 0.728
E28 [9], 333.3 nM | – | 0.943
E28 [9], 1000 nM | – | 0.894
E28 [9], 3000 nM | – | 0.734
E31 [4], 4.1 nM | 0.406 | –
E31 [4], 12.3 nM | 0.329 | –
E31 [4], 37 nM | 0.778 | –
E31 [4], 111.1 nM | 0.924 | –
E31 [4], 333.3 nM | 1.07 | –
E31 [4], 1000 nM | 0.762 | –
E31 [4], 3000 nM | 0.758 | –
E31 [11], 4.1 nM | – | 0.893
E31 [11], 12.3 nM | – | 0.975
E31 [11], 37 nM | – | 0.905
E31 [11], 111.1 nM | – | 0.978
E31 [11], 333.3 nM | – | 1.17
E31 [11], 1000 nM | – | 0.945
E31 [11], 3000 nM | – | 0.906
E34 [7], 4.1 nM | 1.09 | –
E34 [7], 12.3 nM | 0.577 | –
E34 [7], 37 nM | 0.765 | –
E34 [7], 111.1 nM | 1.86 | –
E34 [7], 333.3 nM | 0.741 | –
E34 [7], 1000 nM | 1.59 | –
E34 [7], 3000 nM | 1.13 | –
E34 [14], 4.1 nM | – | 0.923
E34 [14], 12.3 nM | – | 0.963
E34 [14], 37 nM | – | 1.2
E34 [14], 111.1 nM | – | 0.942
E34 [14], 333.3 nM | – | 0.904
E34 [14], 1000 nM | – | 0.885
E34 [14], 3000 nM | – | 0.9
E57 [5], 4.1 nM | 0.753 | –
E57 [5], 12.3 nM | 0.699 | –
E57 [5], 37 nM | 0.615 | –
E57 [5], 111.1 nM | 0.914 | –
E57 [5], 333.3 nM | 0.614 | –
E57 [5], 1000 nM | 1.06 | –
E57 [5], 3000 nM | 1.1 | –
E57 [12], 4.1 nM | – | 0.904
E57 [12], 12.3 nM | – | 0.959
E57 [12], 37 nM | – | 1.02
E57 [12], 111.1 nM | – | 1.02
E57 [12], 333.3 nM | – | 1.02
E57 [12], 1000 nM | – | 1.04
E57 [12], 3000 nM | – | 0.94
FT3469 [3], 4.1 nM | 0.942 | –
FT3469 [3], 12.3 nM | 0.464 | –
FT3469 [3], 37 nM | 2.87 | –
FT3469 [3], 111.1 nM | 0.576 | –
FT3469 [3], 333.3 nM | 0.57 | –
FT3469 [3], 1000 nM | 0.775 | –
FT3469 [3], 3000 nM | 0.616 | –
FT3469 [10], 4.1 nM | – | 1.11
FT3469 [10], 12.3 nM | – | 0.924
FT3469 [10], 37 nM | – | 1.07
FT3469 [10], 111.1 nM | – | 1.06
FT3469 [10], 333.3 nM | – | 0.843
FT3469 [10], 1000 nM | – | 0.927
FT3469 [10], 3000 nM | – | 0.855

NC(=O)c1cccc2cn(-c3ccc([C@@H]4CCCNC4)cc3)nc12 [Niraparib]
Conditions | phenotypic distance | surviving fraction
E13 [6], 4.1 nM | 6.4 | –
E13 [6], 12.3 nM | 0.843 | –
E13 [6], 37 nM | 0.647 | –
E13 [6], 111.1 nM | 1.65 | –
E13 [6], 333.3 nM | 1.62 | –
E13 [6], 1000 nM | 0.782 | –
E13 [6], 3000 nM | 1.33 | –
E13 [13], 4.1 nM | – | 0.923
E13 [13], 12.3 nM | – | 0.914
E13 [13], 37 nM | – | 0.942
E13 [13], 111.1 nM | – | 0.857
E13 [13], 333.3 nM | – | 0.967
E13 [13], 1000 nM | – | 0.966
E13 [13], 3000 nM | – | 0.811
E21 [1], 4.1 nM | 1 | –
E21 [1], 12.3 nM | 1.03 | –
E21 [1], 37 nM | 0.998 | –
E21 [1], 111.1 nM | 0.66 | –
E21 [1], 333.3 nM | 0.751 | –
E21 [1], 1000 nM | 3.25 | –
E21 [1], 3000 nM | 0.988 | –
E21 [8], 4.1 nM | – | 0.89
E21 [8], 12.3 nM | – | 0.869
E21 [8], 37 nM | – | 0.882
E21 [8], 111.1 nM | – | 0.923
E21 [8], 333.3 nM | – | 0.916
E21 [8], 1000 nM | – | 0.927
E21 [8], 3000 nM | – | 0.942
E28 [2], 4.1 nM | 0.932 | –
E28 [2], 12.3 nM | 0.689 | –
E28 [2], 37 nM | 1.02 | –
E28 [2], 111.1 nM | 0.861 | –
E28 [2], 333.3 nM | 0.791 | –
E28 [2], 1000 nM | 1.23 | –
E28 [2], 3000 nM | 2.78 | –
E28 [9], 4.1 nM | – | 0.905
E28 [9], 12.3 nM | – | 0.975
E28 [9], 37 nM | – | 0.875
E28 [9], 111.1 nM | – | 0.868
E28 [9], 333.3 nM | – | 0.922
E28 [9], 1000 nM | – | 0.84
E28 [9], 3000 nM | – | 0.603
E31 [4], 4.1 nM | 0.907 | –
E31 [4], 12.3 nM | 1.29 | –
E31 [4], 37 nM | 1.19 | –
E31 [4], 111.1 nM | 0.995 | –
E31 [4], 333.3 nM | 0.875 | –
E31 [4], 1000 nM | 0.834 | –
E31 [4], 3000 nM | 2.29 | –
E31 [11], 4.1 nM | – | 1.04
E31 [11], 12.3 nM | – | 0.782
E31 [11], 37 nM | – | 1
E31 [11], 111.1 nM | – | 0.896
E31 [11], 333.3 nM | – | 0.939
E31 [11], 1000 nM | – | 0.886
E31 [11], 3000 nM | – | 0.64
E34 [7], 4.1 nM | 3.06 | –
E34 [7], 12.3 nM | 0.78 | –
E34 [7], 37 nM | 0.587 | –
E34 [7], 111.1 nM | 0.691 | –
E34 [7], 333.3 nM | 0.654 | –
E34 [7], 1000 nM | 0.893 | –
E34 [7], 3000 nM | 1.77 | –
E34 [14], 4.1 nM | – | 0.963
E34 [14], 12.3 nM | – | 0.904
E34 [14], 37 nM | – | 0.902
E34 [14], 111.1 nM | – | 0.971
E34 [14], 333.3 nM | – | 0.861
E34 [14], 1000 nM | – | 0.924
E34 [14], 3000 nM | – | 0.737
E57 [5], 4.1 nM | 0.553 | –
E57 [5], 12.3 nM | 0.936 | –
E57 [5], 37 nM | 0.684 | –
E57 [5], 111.1 nM | 0.604 | –
E57 [5], 333.3 nM | 0.582 | –
E57 [5], 1000 nM | 0.667 | –
E57 [5], 3000 nM | 1.51 | –
E57 [12], 4.1 nM | – | 0.996
E57 [12], 12.3 nM | – | 0.917
E57 [12], 37 nM | – | 0.93
E57 [12], 111.1 nM | – | 0.833
E57 [12], 333.3 nM | – | 0.951
E57 [12], 1000 nM | – | 0.921
E57 [12], 3000 nM | – | 0.826
FT3469 [3], 4.1 nM | 1.72 | –
FT3469 [3], 12.3 nM | 0.905 | –
FT3469 [3], 37 nM | 1.21 | –
FT3469 [3], 111.1 nM | 0.978 | –
FT3469 [3], 333.3 nM | 0.746 | –
FT3469 [3], 1000 nM | 1.12 | –
FT3469 [3], 3000 nM | 2.12 | –
FT3469 [10], 4.1 nM | – | 0.84
FT3469 [10], 12.3 nM | – | 0.901
FT3469 [10], 37 nM | – | 0.853
FT3469 [10], 111.1 nM | – | 0.918
FT3469 [10], 333.3 nM | – | 0.931
FT3469 [10], 1000 nM | – | 0.916
FT3469 [10], 3000 nM | – | 0.743
